Patent US9856225B2, “Substituted phenazines as antimicrobial agents” (University of Florida Research Foundation, Incorporated, priority 2013, dated 2018)
“And” between values parts separate entries of the source, which are not always exact repeats. Identical values can stand only once. Like-named read-outs stand apart in the source and are kept apart here.

Experiments:
Assay type in all cases: cell-based
[1] = system: Staphylococcus aureus (ATCC 25923); test: MIC broth microdilution (CLSI), Luria Broth; settings: Staphylococcus aureus
Protocol: (§1) Antibiotic Susceptibility Tests (MIC Assay Protocol). The minimum inhibitory concentration (MIC) for each compound described herein was determined by the broth microdilution method as recommended by the Clinical and Laboratory Standards Institute (CLSI) (Clinical and Laboratory Standards Institute. 2009. Methods for dilution antimicrobial susceptibility tests for bacteria that grow aerobically; approved standard, eighth edition (M7-A8)). In a 96-well plate, eleven two-fold serial dilutions of each compound were made in a final volume of 100 μL Luria Broth (one column served as a blank; see the MIC assay described herein). Each well was inoculated with 10^5 bacterial cells at the initial time of incubation, prepared from a fresh log phase culture (OD600 of 0.5). […] The concentration range tested for each compound during this study was 0.10 to 100 μM. DMSO served as the vehicle and negative control in each microdilution MIC assay. DMSO was serially diluted at the same concentration as the compounds with a top concentration of 1% v/v. Bacterial strains used: Staphylococcus aureus (ATCC 25923), Staphylococcus epidermidis (ATCC 12228) and Pseudomonas aeruginosa (PAO1). Kanamycin was used as a positive control against Staphylococcus aureus and Staphylococcus epidermidis.

[2] = system: Staphylococcus epidermidis (ATCC 12228); test: MIC broth microdilution (CLSI), Luria Broth
Protocol: as §1

[3] = system: Pseudomonas aeruginosa (PAO1); test: MIC broth microdilution (CLSI), Luria Broth
Protocol: as §1

[4] = system: Acinetobacter baumannii (ATCC 19606); test: Planktonic growth (OD600) in biofilm inhibition assay; settings: for inhibition of growth at 100 µM: Acinetobacter baumannii, ATCC19606, 24 h, A. baumannii ATCC 19606, * = no growth inhibition at 200 μM, read-out: % Growth Inhibition at 100 μM
Protocol: Each well was inoculated with ˜7×10^6 colony forming units per milliliter (corresponding to an OD600 of 0.01 prepared directly from an overnight culture). A lid was placed on the 96-well plate which was wrapped in suran wrap, placed in a humidifying chamber and incubated under static conditions at 37° C. for 24 hours. Following incubation, the media and planktonic bacteria were then removed from 96-well plates and the wells were then washed with water. The bacterial biofilms within the microtiter wells were stained with 200 μL of an aqueous 0.1% crystal violet solution that was allowed to stand for 10-20 minutes. The crystal violet stain was then removed, the wells were rinsed with water and dried. The crystal violet stain that remained on the inside of the wells (i.e., stained bacterial biofilm) on the inside of the wells was solubilized by the addition of 200 μL ethanol and absorbance was read at OD540 using a spectrophotometer. […] Single data points for all compounds and DMSO controls were tested in two replicate rows in 96-well plates and corresponding absorbance readings were averaged for the quantification of planktonic growth and biofilm formation. Reported percent biofilm inhibition was determined by the comparison of compound treated wells (the average of the two replicate wells) versus vehicle control wells without compound following background subtraction (i.e., an empty, untreated well) and reported from 2 to 4 independent overnight cultures. DMSO was serially diluted at the same concentration as test compounds with a top concentration of 1% v/v.
(§2) The bromophenazines were also evaluated against the Gram-negative bacterium Acinetobacter baumannii in order to identify biofilm modulating small molecules against this emerging pathogen. Acinetobacter baumannii is notorious for its ability to persist as bacterial biofilms on hospital surfaces, giving rise to many multidrug-resistant nosocomial infections. Clinical isolates of A. baumannii have been identified that are resistant to every class of antibiotic clinically used. The bromophenazines were evaluated against Acinetobacter baumannii ATCC 19606 in biofilm inhibition assays. Bromophenazines were allowed to incubate in 96-well plates with Acinetobacter baumannii (˜7×10^6 CFUmL^−1 by adjusting an overnight culture to an OD600˜0.01) for 24 hours at 37° C. using Mueller-Hinton broth followed by spectrophometer readings of each plate to evaluate planktonic growth (OD600) and biofilm formation (OD540 after crystal violet stain of biofilms inside microtiter wells). […] This biofilm inhibition with activation of planktonic growth activity was dose-dependent with bromophenazine 17a (see FIG. 20).

[5] = system: Acinetobacter baumannii (ATCC 19606) biofilm; test: Biofilm inhibition, Mueller-Hinton broth, crystal violet; settings: Acinetobacter baumannii, ATCC19606; A. baumannii ATCC 19606; 100 μM; read-out: % Biofilm Inhibition at 100 μM
Protocol: Biofilm Inhibition Protocol for A. baumannii (ATCC 19606): In a 96-well plate, ten two-fold serial dilutions of each compound tested were made from the highest concentration tested (100 μM) in a final volume of 100 μL in Mueller-Hinton broth (one column served as a blank). Each well was inoculated with ˜7×10^6 colony forming units per milliliter (corresponding to an OD600 of 0.01 prepared directly from an overnight culture). A lid was placed on the 96-well plate which was wrapped in suran wrap, placed in a humidifying chamber and incubated under static conditions at 37° C. for 24 hours. Following incubation, the media and planktonic bacteria were then removed from 96-well plates and the wells were then washed with water. The bacterial biofilms within the microtiter wells were stained with 200 μL of an aqueous 0.1% crystal violet solution that was allowed to stand for 10-20 minutes. The crystal violet stain was then removed, the wells were rinsed with water and dried. The crystal violet stain that remained on the inside of the wells (i.e., stained bacterial biofilm) on the inside of the wells was solubilized by the addition of 200 μL ethanol and absorbance was read at OD540 using a spectrophotometer. NOTE: The concentration range tested for each compound was 0.2-100 μM. Single data points for all compounds and DMSO controls were tested in two replicate rows in 96-well plates and corresponding absorbance readings were averaged for the quantification of planktonic growth and biofilm formation. Reported percent biofilm inhibition was determined by the comparison of compound treated wells (the average of the two replicate wells) versus vehicle control wells without compound following background subtraction (i.e., an empty, untreated well) and reported from 2 to 4 independent overnight cultures. DMSO was serially diluted at the same concentration as test compounds with a top concentration of 1% v/v.
as §2

[6] = system: Staphylococcus aureus (ATCC 25923) biofilm; test: Biofilm inhibition, crystal violet staining; set-up: MIC/IC50 Biofilm: unit not given here; settings: S. aureus ATCC 25923; for Phenotype: planktonic growth vs biofilm formation; for IC50: Staphylococcus aureus, ATCC25923, single replicate screen, read-out: Biofilm Inhibition IC50; for MIC/IC50 Biofilm: ratio of MIC to IC50 of biofilm inhibition
Protocol: Biofilm Inhibition Protocol for S. aureus (ATCC 25923). A serial two-fold dilution of 2× bromophenazine small molecule concentration was made in 100 μL tryptic soy broth (TSB) medium with 0.5% glucose were delivered into 0.1% gelatin (Millipore) coated 96-well tissue culture plates. […] To each well, 100 μL of TSB with 0.5% glucose containing 2×10^6 CFU/mL Staphylococcus aureus cells, prepared from fresh culture (OD600 of 0.8), was added. The plates were incubated at 37° C. for 24 hours. The wells were gently rinsed by submerging the entire plates in a tub of cold, running tap water. The wells were then fixed with 200 μL methanol for 15 minutes. After the plates were air dried, the biofilms were stained with 100 μL of 1% crystal violet for 10 minutes. The plates were again rinsed with running water. After drying in air, quantitative assessment of biofilm formation was obtained by extracting the crystal violet associated with the remaining biofilm with 100 μL per well of the following bleaching solution (methanol:glacial acetic acid:water (v/v/v)=4:1:5). This bleaching solution dissolved the bound crystal violet and produced a violet-colored solution in each well. The intensity of coloration was determined by measuring the absorbance at 540 nm.

[7] = ATCC25923, Table 1, ATCC 25923, range tested 0.10 to 100 μM, read-out: Staphylococcus aureus MIC
[8] = ATCC25923, Table 1, ATCC 25923, read-out: Staphylococcus aureus MIC
[9] = ATCC12228, Table 1, ATCC 12228, read-out: Staphylococcus epidermidis MIC
[10] = Table 1, PAO1, read-out: Pseudomonas aeruginosa MIC
[11] = ATCC25923, Table 2, S. aureus ATCC 25923, Luria Broth, read-out: MIC

Compound | MIC [1, 7] [µM] | MIC [1, 8] [µg/mL] | MIC [2, 9] | MIC [3, 10] [µM] | further results
Oc1cccc2nc3ccccc3nc12 [Compound 2, 1-Hydroxyphenazine, reference compound] |  |  |  |  | MIC ([1]; ATCC25923, read-out: Staphylococcus aureus MIC): > 100 µM and > 19.7 µg/mL; MIC ([2]; ATCC12228, read-out: Staphylococcus epidermidis MIC): > 100 µM and > 19.7 µg/mL; MIC ([3]; PAO1, read-out: Pseudomonas aeruginosa MIC): > 100 µM
O=C(O)c1cccc2nc3ccccc3nc12 [Compound 3, Phenazine-1-carboxylic acid, reference compound] | > 100 | > 22.5 | > 100 µM and > 22.5 µg/mL | > 100 | 
NC(=O)c1cccc2nc3ccccc3nc12 [Compound 4, Phenazine-1-carboxamide, reference compound] | > 100 | > 22.4 | > 100 µM and > 22.4 µg/mL | > 100 | 
Oc1c(Br)ccc2nc3ccccc3nc12 [Compound 5, 2-Bromophenazin-1-ol, reference compound] | 6.25 | 1.72 | 6.25 µM and 1.72 µg/mL | > 100 | 
Nc1cccc2nc3ccccc3nc12 [Compound 6, Phenazin-1-amine] | > 100 | > 19.6 | > 100 µM and > 19.6 µg/mL | > 100 | 
O=C(O)c1cccc2c1nc1ccccc1[n+]2[O-] [Compound 7, 1-Carboxyphenazine 5-oxide] | > 100 | > 24.1 | > 100 µM and > 24.1 µg/mL | > 100 | 
COc1ccc2nc3c(C(=O)O)cccc3nc2c1 [Compound 8, 7-Methoxyphenazine-1-carboxylic acid] | > 100 | > 25.5 | > 100 µM and > 25.5 µg/mL | > 100 | 
O=C(O)c1cccc2nc3cc(Br)ccc3nc12 [Compound 9, 7-Bromophenazine-1-carboxylic acid] | 100 | 30.3 | 100 µM and 30.3 µg/mL | > 100 | 
O=C(O)c1cccc2nc3cccc(Cl)c3nc12 [Compound 10, 9-Chlorophenazine-1-carboxylic acid] | 50 | 13 | 50 µM and 13 µg/mL | > 100 | 
COc1cc2nc3c(C(=O)O)cccc3nc2c(OC)c1OC [Compound 12, 6,7,8-Trimethoxyphenazine-1-carboxylic acid] | > 100 | > 31.5 | > 100 µM and > 31.5 µg/mL | > 100 | 
CCc1ccc2nc3c(C(=O)O)cccc3nc2c1 [Compound 13, 7-Ethylphenazine-1-carboxylic acid] | > 100 | > 25.3 | > 100 µM and > 25.3 µg/mL | > 100 | 
Nc1cccc2nc3cc(Br)ccc3nc12 [Compound 14, 7-Bromophenazin-1-amine] | > 100 | > 27.4 |  | > 100 | 
NC(=O)c1cccc2nc3cc(Br)ccc3nc12 [Compound 15, 7-Bromophenazine-1-carboxamide] | > 100 | > 30.2 |  | > 100 | 
Nc1c(Br)cc(Br)c2nc3cc(Br)ccc3nc12 [Compound 16, 2,4,7-Tribromophenazin-1-amine] | > 100 | > 43.2 |  | > 100 | 
Nc1c(Br)cc(Br)c2nc3ccccc3nc12 [Compound 17, 2,4-Dibromophenazin-1-amine] | > 100 | > 35.4 |  | > 100 | 
COc1ccc(Br)c2nc3ccccc3nc12 [Compound 19, 1-Bromo-4-methoxyphenazine] | > 100 | > 28.9 |  | > 100 | 
Oc1ccc(Br)c2nc3ccccc3nc12 [Compound 20, 4-Bromophenazin-1-ol] | > 100 | > 27.5 |  | > 100 | 
CC(C)C(=O)Oc1c(Br)cc(Br)c2nc3ccccc3nc12 [Compound 22, 2,4-Dibromophenazin-1-yl isobutyrate] | 1.56 | 0.66 | 1.56 µM and 0.66 µg/mL |  | MIC [1, 11]: 1.56 µM; inhibition of growth at 100 µM ([4]; 100 μM): -13 ± 5%; inhibition at 100 µM [5]: 26 ± 12%; Phenotype [6]: antibacterial; IC50 [6]: 990 nM; MIC/IC50 Biofilm [6]: 1.6
O=C(Oc1c(Br)cc(Br)c2nc3ccccc3nc12)c1cccc(Br)c1 [Compound 25, 2,4-Dibromophenazin-1-yl 3-bromobenzoate] | 3.13 | 1.68 | 3.13 µM and 1.68 µg/mL |  | MIC [1, 11]: 3.13 µM; increase in planktonic growth ([4]; 100 μM, OD600): ~15%; planktonic growth inhibition at 200 μM ([4]; 200 μM): did not inhibit planktonic growth; inhibition of growth at 100 µM ([4]; 100 μM): -18 ± 4%; inhibition at 100 µM [5]: 49 ± 6%; Phenotype [6]: antibacterial; IC50 [6]: 930 nM; MIC/IC50 Biofilm [6]: 3.4
